Experimental data taken from patent US12358960B2, “Selective targeting of ubiquitin- and ubiquitin-like E1-activating enzymes by structurally-stabilized peptides” (Dana-Farber Cancer Institute, Inc., priority 2019, dated 2025).
Bridge positions count the residues as written; N and C are the ends. Square brackets hold non-standard residues; d marks the D form. Peptide text beside a SMILES is read from it. R8 = C=CCCCCCC[C@@](C)(N)C(=O)O; S5 = C=CCCC[C@](C)(N)C(=O)O; Nle = CCCC[C@H](N)C(=O)O

Tests used:
[1] = target: T1, UBA1 (Homo sapiens, UniProt P22314); test: Streptavidin-biotin pull-down with recombinant protein; type: binding; details: biotinylated peptide, silver stain
T1 sequence (P22314 1-1058): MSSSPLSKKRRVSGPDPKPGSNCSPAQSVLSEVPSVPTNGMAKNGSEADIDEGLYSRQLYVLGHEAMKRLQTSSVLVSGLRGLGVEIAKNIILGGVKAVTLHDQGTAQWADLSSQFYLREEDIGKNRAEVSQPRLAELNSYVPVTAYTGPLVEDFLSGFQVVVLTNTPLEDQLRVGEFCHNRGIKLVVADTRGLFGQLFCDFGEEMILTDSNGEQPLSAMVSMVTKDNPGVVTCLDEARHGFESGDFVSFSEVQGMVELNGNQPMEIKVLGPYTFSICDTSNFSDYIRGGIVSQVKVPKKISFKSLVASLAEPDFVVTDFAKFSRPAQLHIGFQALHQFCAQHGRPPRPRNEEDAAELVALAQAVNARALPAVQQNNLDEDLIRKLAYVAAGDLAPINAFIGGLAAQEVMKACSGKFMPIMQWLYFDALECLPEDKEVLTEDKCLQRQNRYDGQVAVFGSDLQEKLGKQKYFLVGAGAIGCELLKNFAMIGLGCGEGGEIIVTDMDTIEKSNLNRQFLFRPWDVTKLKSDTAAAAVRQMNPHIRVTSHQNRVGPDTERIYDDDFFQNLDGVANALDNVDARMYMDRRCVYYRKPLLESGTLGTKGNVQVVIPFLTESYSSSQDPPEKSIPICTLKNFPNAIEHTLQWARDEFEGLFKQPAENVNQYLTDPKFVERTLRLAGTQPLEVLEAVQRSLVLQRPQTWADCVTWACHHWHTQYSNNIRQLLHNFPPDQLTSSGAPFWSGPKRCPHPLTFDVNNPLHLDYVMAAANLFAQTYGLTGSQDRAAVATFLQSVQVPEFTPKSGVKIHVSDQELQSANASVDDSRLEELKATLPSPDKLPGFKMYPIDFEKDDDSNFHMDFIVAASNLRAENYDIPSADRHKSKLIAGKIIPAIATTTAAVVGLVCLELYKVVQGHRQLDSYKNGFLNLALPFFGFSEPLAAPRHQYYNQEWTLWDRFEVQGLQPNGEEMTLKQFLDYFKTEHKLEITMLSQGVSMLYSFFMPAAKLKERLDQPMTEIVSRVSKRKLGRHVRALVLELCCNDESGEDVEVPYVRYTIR
Protocol: (§1) Streptavidin-biotin pull-down assays: For recombinant protein pull-downs, 10 pmol recombinant human UBA1 was incubated with 5 nmol C-terminally biotinylated SAH-UBE2A or DMSO vehicle control in a total volume of 1 mL binding buffer (50 mM NaCl, 20 mM HEPES, pH 7.4, 5 mM DTT) for 1.5 hours at 4° C. 30 μL of pre-equilibrated streptavidin agarose beads were then added and incubated for an additional 1.5 hours at 4° C. The beads were pelleted by centrifugation and washed three times with NP-40 buffer (20 mM HEPES, pH 7.4, 50 mM NaCl, 5 mM DTT, 0.5% [v/v] NP-40) before eluting the protein sample from the beads by heating at 70° C. for 10 min in 3×SDS loading buffer. Samples were subjected to electrophoresis and silver staining (Pierce 24612). […] Proteins were separated by SDS-PAGE gel electrophoresis and detected by western blot against UBE1 (Abcam ab34711). […] Conjugation of ubiquitin to E2 by E1 is monitored by conversion of free E2 (17 kDa) to E2˜ubiquitin conjugate (26 kDa). Quantitation of percent inhibition was calculated from densitometry of silver stain images. Error bars represent ±1 SEM calculated from three independent experiments.

[2] = target: T2, native UBA1 (Homo sapiens, UniProt P22314); test: Streptavidin-biotin pull-down from HeLa cell lysate, western blot for UBA1; type: binding; details: biotinylated peptide
T2 construct: endogenous in cells; host or cells: HeLa cell lysate
T2 sequence (P22314 1-1058): T1 sequence (P22314 1-1058)
Protocol: as §1

[3] = Circular dichroism, α-helicity; type: physicochemical; details: in solution
Protocol: Assays to Determine α-Helicity: Compounds are dissolved in an aqueous solution (e.g., 5 mM potassium phosphate solution at pH 7, or distilled H2O, to concentrations of 25-50 μM). Circular dichroism (CD) spectra are obtained on a spectropolarimeter (e.g., Jasco J-710, Aviv) using standard measurement parameters (e.g., temperature, 20° C.; wavelength, 190-260 nm; step resolution, 0.5 nm; speed, 20 nm/sec; accumulations, 10; response, 1 sec; bandwidth, 1 nm; path length, 0.1 cm). The α-helical content of each peptide is calculated by dividing the mean residue ellipticity by the reported value for a model helical decapeptide (Yang et al., Methods Enzymol. 130:208 (1986)).
Circular Dichroism: Acetylated peptides were dissolved in 10% (vol/vol) acetonitrile in water for circular dichroism analyses, performed on an Aviv Biomedical spectrophotometer, as reported (see Bird et. al., Methods in Enzymol., 446:369-386 (2008)).

Q: With `CCCC[C@H](NC(C)=O)C(=O)N[C@@H](CO)C(=O)N[C@H](C(=O)N1CCC[C@H]1C(=O)N[C@]1(C)CCCCCCC=CCCC[C@@](C)(C(=O)N[C@@H](Cc2ccccc2)C(=O)N[C@@H](CCCCN)C(=O)N[C@@H](CCCNC(=N)N)C(=O)N[C@@H](CC(C)C)C(=O)N[C@@H](CCC(N)=O)C(N)=O)NC(=O)[C@H](CCCNC(=N)N)NC(=O)[C@H](CCCC)NC(=O)[C@H](CC(C)C)NC(=O)[C@H](CCCNC(=N)N)NC(=O)[C@H](CCCNC(=N)N)NC(=O)[C@H](CCCNC(=N)N)NC1=O)[C@@H](C)O` [SAH-UBE2A-11, BSTPX1RRRLBRX2FKRLQ] (Ac-[Nle]STP[R8]RRRL[Nle]R[S5]FKRLQ-NH2; staple 5-12) as the compound, how does the “direct binding to recombinant UBA1, streptavidin capture” value [1] read?
A: direct binding of SAH-UBE2A to UBA1

Q: What about the “direct binding to native UBA1 in HeLa cell lysate” value [2] of the same compound?
A: direct binding of SAH-UBE2A to native UBA1

Q: And the “helicity / helical content” value [3]?
A: 54%
